The values below are quoted from earlier work in patent US7317012B2, “Bicyclic heterocycles as cannabinoind-1 receptor modulators” (Bristol-Myers Squibb Company, priority 2005, dated 2008).

For series [1] the following is noted: chronic administration for two weeks.
For series [2] the following is noted: human subjects, 16 week trial period.

The structures appear in SMILES notation. Where two headings read alike, the source gives them in different places.

For the compound `Cc1c(C(=O)NN2CCCCC2)nn(-c2ccc(Cl)cc2Cl)c1-c1ccc(I)cc1` [AM-251], the body weight entry in series [1] is “substantial body weight reduction”.

Regarding `Cc1c(C(=O)NN2CCCCC2)nn(-c2ccc(Cl)cc2Cl)c1-c1ccc(Cl)cc1` [SR-141716], in series [2], the body weight result is given as “dose-dependently reduced body weight”.
